Calls of active or inactive are those of the source. The rule behind the calls is not given here. Non-standard residues stand in square brackets, D forms with d. Residues, ends and D or L forms follow the SMILES beside them. ξ: configuration not given here. Tle = CC(C)(C)[C@H](N)C(=O)O; ξOic = O=C(O)C1CC2CCCCC2N1; Aib = CC(C)(N)C(=O)O
Experiments:
[1] = test system: PC-12; test: Protection against amyloid beta-induced neurotoxicity in rat PC-12 cells assessed as cell viability at 10 uM by MTT assay (reference value: 63.6 %); format: functional; conditions: read-out: Activity
[2] = test system: PC-12; test: Protection against amyloid beta-induced neurotoxicity in rat PC-12 cells assessed as cell viability at 2 uM by MTT assay (reference value: 63.6 %); format: functional; conditions: read-out: Activity
[3] = Inhibition of amyloid beta-induced neurotoxicity in rat PC-12 cells at 2 uM by MTT assay relative to control; format: functional
[4] = test system: PC-12; test: Protection against amyloid beta-induced neurotoxicity in rat PC-12 cells assessed as cell viability at 4 uM by MTT assay (reference value: 63.6 %); format: functional; conditions: read-out: Activity
[5] = Inhibition of amyloid beta-induced neurotoxicity in rat PC-12 cells at 10 uM by MTT assay relative to control; format: functional
[6] = Inhibition of amyloid beta-induced neurotoxicity in rat PC-12 cells at 4 uM by MTT assay relative to control; format: functional
[7] = molecular target: Amyloid-beta precursor protein (Homo sapiens) (UniProt P05067); test: Inhibition of amyloid beta (1 to 42) (unknown origin) self aggregation at 2 to 10 uM by ThT fluorescence assay; conditions: dose 2-10 µM
Amyloid-beta precursor protein (Homo sapiens), sequence (P05067 whole entry): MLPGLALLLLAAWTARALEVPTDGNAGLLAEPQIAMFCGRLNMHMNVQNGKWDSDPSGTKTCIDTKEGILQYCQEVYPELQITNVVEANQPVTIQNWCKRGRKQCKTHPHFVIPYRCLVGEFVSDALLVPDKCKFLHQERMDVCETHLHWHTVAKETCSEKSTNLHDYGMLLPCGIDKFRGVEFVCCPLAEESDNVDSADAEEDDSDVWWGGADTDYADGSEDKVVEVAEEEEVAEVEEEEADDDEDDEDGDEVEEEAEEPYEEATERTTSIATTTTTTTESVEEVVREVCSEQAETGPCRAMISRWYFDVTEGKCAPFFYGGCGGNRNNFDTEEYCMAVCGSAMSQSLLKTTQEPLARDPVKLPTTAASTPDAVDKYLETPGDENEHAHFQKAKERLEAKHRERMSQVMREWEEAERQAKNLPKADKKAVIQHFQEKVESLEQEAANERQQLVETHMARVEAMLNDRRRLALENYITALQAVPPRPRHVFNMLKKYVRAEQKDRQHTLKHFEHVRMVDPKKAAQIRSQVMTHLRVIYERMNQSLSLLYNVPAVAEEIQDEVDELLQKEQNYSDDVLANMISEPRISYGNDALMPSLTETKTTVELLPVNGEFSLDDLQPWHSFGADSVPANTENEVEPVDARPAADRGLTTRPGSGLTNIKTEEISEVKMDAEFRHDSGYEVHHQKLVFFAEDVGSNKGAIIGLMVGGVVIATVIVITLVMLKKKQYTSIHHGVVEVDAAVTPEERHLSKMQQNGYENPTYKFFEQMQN

`CC[C@H](C)[C@H](NC(=O)[C@@H](NC(=O)[C@@H](N)C(C)C)C(C)C)C(=O)N[C@@H](C)C(N)=O` showed a viability at 10 µM [1] of 63.4%, a viability at 2 µM [2] of 60.7% and an inhibition at 2 µM [3] of 0%. The viability at 4 µM [4] was 59.4%, the inhibition at 10 µM [5] was 0% and the inhibition at 4 µM [6] was 0%.

For `CC[C@H](C)[C@H](NC(=O)[C@H](C)N)C(=O)N[C@H](C(=O)N[C@H](C(N)=O)C(C)C)C(C)C`, the viability at 10 µM [1] was 58.3%, the viability at 2 µM [2] was 55.2% and the inhibition at 2 µM [3] was 0%. The viability at 4 µM [4] was 69%, the inhibition at 10 µM [5] was 0% and the inhibition at 4 µM [6] was 15%.

With `CC[C@H](C)[C@H](NC(=O)[C@@H](NC(=O)C1Cc2ccccc2CN1)C(C)C)C(=O)N[C@@H](C)C(N)=O` (stereo partly specified) the viability at 10 µM [1] was 61.8%, the inhibition [7] was “Active” and the viability at 2 µM [2] was 68.8%. The inhibition at 2 µM [3] was 14%, the viability at 4 µM [4] was 62.4% and the inhibition at 10 µM [5] was 0%. It also gave an inhibition at 4 µM [6] of 0%.

In the case of `CC[C@H](C)[C@H](NC(=O)[C@H](C)N)C(=O)N[C@H](C(=O)N[C@H](Cc1ccccc1)C(N)=O)C(C)C`, the viability at 10 µM [1] is reported as 76.4%, the inhibition [7] is reported as “Active” and the viability at 2 µM [2] is reported as 55.2%. It also gave an inhibition at 2 µM [3] of 0%, a viability at 4 µM [4] of 69.1% and an inhibition at 10 µM [5] of 35%. It also gave an inhibition at 4 µM [6] of 15%.

`CC[C@@H](C)[C@@H](NC(=O)[C@H](NC(=O)[C@H](N)C(C)C)C(C)C)C(=O)N[C@H](C)C(N)=O` gave a viability at 10 µM [1] of 64.1%, a viability at 2 µM [2] of 73.3% and an inhibition at 2 µM [3] of 27%. It also gave a viability at 4 µM [4] of 65.6%, an inhibition at 10 µM [5] of 1% and an inhibition at 4 µM [6] of 6%.

Compound `CC[C@H](C)[C@H](NC(=O)[C@H](N)Cc1ccccc1)C(=O)N[C@H](C(=O)N[C@H](C(N)=O)C(C)C)C(C)C` has a viability at 10 µM [1] of 67%, a viability at 2 µM [2] of 68.4% and an inhibition at 2 µM [3] of 13%. For the same compound, the viability at 4 µM [4] was 54.7%, the inhibition at 10 µM [5] was 9.3% and the inhibition at 4 µM [6] was 0%.

Compound `CC[C@@H](C)[C@@H](NC(=O)[C@@H](C)N)C(=O)N[C@@H](C(=O)N[C@@H](C(N)=O)C(C)C)C(C)C` has a viability at 10 µM [1] of 74.6%, a viability at 2 µM [2] of 68.7% and an inhibition at 2 µM [3] of 14%. It also gave a viability at 4 µM [4] of 63.3%, an inhibition at 10 µM [5] of 30% and an inhibition at 4 µM [6] of 0%.

With `CC[C@H](C)[C@H](NC(=O)[C@H](C)N)C(=O)N[C@H](C(=O)NC(C)(C)C(N)=O)C(C)C` (H-AIV[Aib]-NH2) the viability at 10 µM [1] was 70.9%, the inhibition [7] was “Active” and the viability at 2 µM [2] was 75.3%. The inhibition at 2 µM [3] was 32%, the viability at 4 µM [4] was 67% and the inhibition at 10 µM [5] was 20%. It also gave an inhibition at 4 µM [6] of 9%.

In the case of `CC(C)[C@H](NC(=O)[C@@H](NC(=O)C(C)(C)NC(=O)[C@H](C)N)C(C)C)C(N)=O` (H-A[Aib]VV-NH2), the viability at 10 µM [1] is reported as 59.6%, the viability at 2 µM [2] is reported as 52.1% and the inhibition at 2 µM [3] is reported as 0%. The viability at 4 µM [4] was 75.3%, the inhibition at 10 µM [5] was 0% and the inhibition at 4 µM [6] was 32%.

In the case of `CC[C@H](C)[C@H](NC(=O)[C@@H](NC(=O)[C@@H](N)C(C)C)C(C)(C)C)C(=O)N[C@@H](C)C(N)=O` (H-V[Tle]IA-NH2), the viability at 10 µM [1] is reported as 74.9%, the inhibition [7] is reported as “Active” and the viability at 2 µM [2] is reported as 77.7%. For the same compound, the inhibition at 2 µM [3] was 39%, the viability at 4 µM [4] was 78.8% and the inhibition at 10 µM [5] was 31%. The inhibition at 4 µM [6] was 42%.

For `CC[C@H](C)[C@H](NC(=O)C1CC2CCCCC2N1C(=O)[C@@H](N)C(C)C)C(=O)N[C@@H](C)C(N)=O` (stereo partly specified) (H-V[ξOic]IA-NH2), the viability at 10 µM [1] was 62.1%, the viability at 2 µM [2] was 64.1% and the inhibition at 2 µM [3] was 1%. It also gave a viability at 4 µM [4] of 78.6%, an inhibition at 10 µM [5] of 0% and an inhibition at 4 µM [6] of 41%.

With `CC[C@H](C)[C@H](NC(=O)[C@@H](NC(=O)[C@@H](N)C(C)(C)C)C(C)C)C(=O)N[C@@H](C)C(N)=O` (H-[Tle]VIA-NH2) the viability at 10 µM [1] was 64.6%, the viability at 2 µM [2] was 79.9% and the inhibition at 2 µM [3] was 45%. For the same compound, the viability at 4 µM [4] was 61.1%, the inhibition at 10 µM [5] was 3% and the inhibition at 4 µM [6] was 0%.
